Data set [1] deals with H9c2 (ATCC CRL-1446) cells. Kind of data set: Cytotoxicity in H9c2 cells (CCK-8). It is filed as cell-based. As to conditions: H9c2 cell line. The procedure, abridged: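 H9c2 cells were grown in DMEM with 10% FBS, seeded the day before, and exposed to a range of di-amidine concentrations for 24 h at 37 °C, 5% CO2. Viability was read by CCK-8 after 3 h at 37 °C as absorbance at 450 nm.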

Data set [2] has as its system E. coli (ATCC 25922). Description: MIC determination, sensitization fold and FIC index on E. coli. It is filed as cell-based. As to conditions: for MIC: Escherichia coli, ATCC25922, 24 h; for MIC of AB with MD-124: MD-124 concentration 5 μg/ml. An outline of the steps: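 E. coli in cation-adjusted Mueller Hinton II, 5×10^5 CFU/ml, 24 h at 37 °C shaking; rifampicin two-fold serial dilutions with or without fixed sensitizer (10 μM).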

In data set [3] the test system is B. subtilis. Kind of data set: MIC determination and sensitization fold on B. subtilis. Format: cell-based. The following applies: for Sensitization fold: erythromycin; for sensitization fold with 5.5 μg/ml DB2560: B. subtilis towards the antibiotic.
The test system of data set [4] is M. smegmatis. Description: MIC on mycobacteria. Format: cell-based, Mycobacterium smegmatis. As to conditions: Mycolicibacterium smegmatis, read-out: MIC on mycobacteria.
Data set [5] deals with E. coli. Description: Lysozyme assay (outer membrane disruption). Format: cell-based. The following applies: 50 μg/ml lysozyme, 50 μg/ml sensitizer, 10 min. On the procedure:
Lysozyme assay to evaluate the disruption of Gram-negative bacteria out membrane by bacterial sensitizers. Lysozyme assay was performed based on literature reported method. E. coli was cultured in Mueller Hinton II cation-adjusted broth for overnight, centrifuged at 3000 g for 10 min, washed with HEPES buffer (pH=7.2) and then centrifuged again to obtain bacteria pallet. The pallet was then gently resuspended in HEPES buffer with 5 mM NaCN to obtain an E. coli suspension with OD600 between 0.8˜1.0. On a 96-well plate, each well was supplied with 100 μl lysozyme solution (100 μg/ml) containing 50 or 100 μg/ml bacterial sensitizers in HEPES buffer. To each well was added 100 μl E. coli suspension. The final concentration of lysozyme was 50 μg/ml. The plate was incubated at room temperature for 10 min and the OD600 was recorded. E. coli was also incubated with bacterial sensitizers in the absence of lysozyme to test if bacterial sensitizers would directly induce bacterial lysis. E. coli that was incubated with lysozyme alone or E. coli without any treatment were also used as negative control.

Data set [6] deals with E. coli (lipid A part of LPS). Kind of data set: Dansyl-PMBN displacement assay. Format: binding. The following applies: E. coli with 10 μM Dansyl-PMBN; sensitizer 0 to 200 μM. Here is the method: Panel (C) depicts a Dansyl-PMBN displacement assay. […] The fluorescent intensity of 10 μM Dansyl-PMBN in HEPES buffer was recorded as baseline F0. Fluorescent intensity/%=(F1−Fx)/(F1−F0). […] All results are triplicates.
Dansyl-PMBN displacement assay. Dansyl-PMBN was synthesized according to literature procedure. Dansyl-PMBN was dissolved in H2O to make 500 μM stock. Bacterial sensitizers were dissolved in ethanol to make 10 mM stock solutions. […] The E. coli stock was centrifuged at 3000 g for 10 min, washed with HEPES buffer (pH=7.2) and then centrifuged again to obtain bacteria pallet. The pallet was then gently resuspended in HEPES buffer to obtain a E. coli suspension with OD600 about 0.3. The experiment was performed on 96-well plates. Each well was supplied with 100 μl coli suspension with 10 μM Dansyl-PMBN, then to each well, different concentrations of bacterial sensitizers were added to achieve a final concentration ranging from 0 to 200 μM.
Mg^2+ can bridge between adjacent lipid A and enhance the membrane integrity. […] This phenomenon was also observed on MD-100. The culture medium for E. coli is Muller Hinton Broth (Cation adjusted), which already has at least 0.5 mM Mg^2+, so the “zero concentration point of Mg^2+” in FIG. 4 represents the amount of exogenous Mg^2+, not the total Mg^2+ in the culture medium. […] A fluorescent conjugate of a polymyxin-B derivative (Dansyl-PMBN, Scheme 3), which would show increased fluorescent intensity after binding to the lipid A part of LPS, was used to further probe this issue. In the presence of another component that can also binding to lipid A, Dansyl-PMBN would be replaced, leading to decreased fluorescent intensity.

Data set [7] relates to MRSA (ATCC 33592). Description: MIC determination and sensitization fold on MRSA. As to conditions: MRSA towards the antibiotic. It is filed as cell-based, methicillin-resistant Staphylococcus aureus.
The subject of data set [8] is A. baumannii (ATCC 17978). Description: MIC, sensitization fold and FIC index on A. baumannii. It is filed as cell-based. As to conditions: for Sensitization fold with 5 μg/ml MD-124: A. baumannii towards the antibiotic.
In data set [9] the test system is NDM-1 expressing E. coli strain. Description: microbe, parasite or virus in culture. It is filed as cell-based. The following applies: NDM-1 expressing E. coli towards the antibiotic.
In data set [10] the test system is MRSA and E. coli. Kind of data set: Composition of mixed MRSA and E. coli under antibiotic pressure. Format: cell-based. As to conditions: trovafloxacin 16 ng/ml. On the procedure:
FIG. 11 contains graphs showing that MD-108 can change the composition between MRSA and E. coli (Panel A) or MRSA and B. subtilis (Panel B) when the bacteria strains are under the same antibiotic pressure.
As a proof of concept, the relative ratio of E. coli and MRSA or B. subtilis and MRSA was measured with and without MD-108 (FIGS. 11A and B). […] When supplied with 1.5 μg/ml MD-108 and 8 ng/ml trovafloxacin, the MRSA inhibition was achieved, leaving E. coli as the dominant species (89% of the bacteria population).

Data set [11] relates to K. pneumoniae (43816). Description: MIC, sensitization fold and FIC index on K. pneumoniae. It is filed as cell-based.
In data set [12] the test system is E. coli. Description: Ex vivo skin burn infection model, wild-type E. coli. As to conditions: human skin burn, hypromellose gel, 24 hours; 4‰ (w/w) novobiocin, 1.5‰ MD-124. Here is the method: To achieve topical application, compounds were formulated as hypromellose gel. […] After that, skin was loaded with hypromellose gel with different antibiotics and cultured at 37° C. for 24 hours. After 24 hours incubation, the skin sample was homogenized and the supernatants were serially diluted and plated on agar plates, from which bacterial counts on the skin was calculated. […] 1‰ polymyxin B hypromellose gel was used as positive control.

Data set [13] concerns HEK293 cells. Description: Cytotoxicity on mammalian cells (CCK-8), HEK293. Format: cell-based. An outline of the steps:
(§1)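 Cells seeded a day ahead to ~80% confluency, exposed to varied compound concentrations for 24 h at 37° C, 5% CO2. CCK-8 added for a further 2 h and OD 450 nm read; viability expressed as percent of untreated control.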

Data set [14] relates to NIH3T3 cells. Description: Cytotoxicity on mammalian cells (CCK-8), NIH3T3. The following applies: 3T3 cell line; 24 h. Format: cell-based. The procedure, abridged: as §1
Where [15] appears, read: E. coli, rifampicin, compound at 25 μM.
Where [16] appears, read: E. coli towards the antibiotic, MD-124 5 μg/ml.

Counter-ions that a name gives are not always drawn. Like-named read-outs stand apart in the source and are kept apart here.

With `N=C(N)c1ccc(OCc2cccc(COc3ccc(C(=N)N)cc3)c2)cc1` [DB2559, 1,3-Bis {(4-amidino)-phenoxymethyl}-benzene dihydrochloride], the CC50 (as a rule, the concentration that lowers cell viability or growth by half) in data set [1] is 100 µM. The Sensitization fold in [2] (setting [15]) is recorded as 8-fold at 25 μM;; in data set [2] (E. coli, rifampicin, compound at 50 μM), 16-fold at 50 μM;; in data set [3] (B. subtilis, compound at 6 μM), 4-fold at 6 μM; in data set [3] (B. subtilis, compound at 12 μM), 8-fold at 12 μM;. For the same molecule, the MIC (in general, the lowest concentration found to suppress growth) stood at 100 µM in data set [2]; 25 µM in [3] (Bacillus subtilis, 24 h, B. subtilis, compound alone, read-out: MIC); 12 µM in data set [4].

With `N=C(N)c1ccc(OCCCCCOc2ccc(C(=N)N)cc2)cc1` [pentamidine, reference compound], the Sensitization fold in data set [2] (E. coli, rifampicin, 20 μg/ml bacterial sensitizer) is on record as 4 fold. Further, the “bacterial lysis by lysozyme in the presence of sensitizer” value in data set [5] is “led to bacterial lysis”. Besides, in data set [6], the “displacement of Dansyl-PMBN (fluorescent intensity)” value is “able to displace Dansyl-PMBN although not as much as MD-124”.

For `N[C@@H]1[C@H]2CN(c3nc4c(cc3F)c(=O)c(C(=O)O)cn4-c3ccc(F)cc3F)C[C@@H]12` [Trovafloxacin, reference compound], the Sensitization fold in data set [2] (setting [16]) amounted to 32 fold. In addition, in [2] (E. coli), the “MIC of AB with MD-124” value worked out at 0.0015 µg/mL. Further, in data set [3], the “sensitization fold with 5.5 μg/ml DB2560” value is listed as 8 fold. In addition, the “sensitization fold with 2.7 μg/ml DB2560” value in data set [7] amounted to 16 fold. Moreover, the “Sensitization fold with 5 μg/ml MD-124” value in data set [8] is given as 2 fold; in [9] it was 32 fold. In addition, in [10], the “MRSA share of the bacteria population” value turned out to be 78%.

As for `CO[C@@H]1[C@@H](OC(N)=O)[C@@H](O)[C@H](Oc2ccc3c(O)c(NC(=O)c4ccc(O)c(CC=C(C)C)c4)c(=O)oc3c2C)OC1(C)C` [Novobiocin, reference compound], the Sensitization fold in [2] (setting [16]) is on record as 64 fold. Moreover, in data set [2] (E. coli), the “MIC of AB with MD-124” value came to 1.6 µg/mL. The MIC in data set [2] (E. coli (wild type), antibiotic alone, read-out: MIC of AB only) stood at 100 µg/mL. For the same molecule, in [3], the “sensitization fold with 5.5 μg/ml DB2560” value was 4 fold. The “Sensitization fold with 5 μg/ml MD-124” value in data set [8], in data set [11] (K. pneumoniae towards the antibiotic) and in data set [9] was 32 fold in each case. In addition, the “FIC index between MD-124 and antibiotic” value in data set [8] (A. baumannii, checkerboard assay) is reported as 0.20. The “MIC of AB with 5 μg/ml MD-124” value in [11] (K. pneumoniae) turned out to be 6.4 µg/mL. Further, the “E. coli growth inhibition / bacterial load vs vehicle group” value in data set [12] was “neither 4‰ (w/w) novobiocin nor 1.5‰ MD-124 themselves achieved significant E. coli growth inhibition”.

With `Cc1cc(COc2ccc(NC(=N)N)cc2)cc(COc2ccc(NC(=N)N)cc2)c1` [MD-125, 1,1′-((((5-methyl-1,3-phenylene)bis(methylene))bis(oxy))bis(4,1-phenylene)) diguanidine di(trifluoroacetate)], the CC50 in data set [1] turned out to be 100 µM; in data set [13] (HEK293 cell line, 24 h), 100 µM; in data set [14], 100 µM. Also, the Sensitization fold is 8 fold in data set [2] (10 μM compound, rifampicin as the antibiotic (Table 6)); 8-fold at 10 μM in data set [2] (E. coli, rifampicin, compound at 10 μM); 32-fold at 25 μM in [2] (setting [15]). Besides, the MIC in data set [2] came out at 100 µM. In [13] (Homo sapiens, HEK293), the IC50 (in general, the point on the concentration scale where inhibition reaches its midpoint) turned out to be 100 µM.

Turning to `N=C(N)c1ccc(OCc2ccc(-c3ccc(C(=N)N)cc3)cc2)cc1` [DB2542], the midpoint of cytotoxicity in [1], the CC50, lay at 100 µM. For the same molecule, the MIC in data set [2] (E. coli, compound alone, read-out: MIC) worked out at 50 µM.

Source of the values: patent US20230105108A1, “COMPOUNDS FOR THE TREATMENT OF BACTERIAL INFECTIONS AND POTENTIATION OF ANTIBIOTICS” (GEORGIA STATE UNIVERSITY RESEARCH FOUNDATION, INC., priority 2019, published 2023).
